Measurements published in BindingDB's records for doi:10.1016/j.bmcl.2005.11.092 (Astrazeneca R&D, 2006).

Each compound was assayed against Metabotropic glutamate receptor 5 (Homo sapiens, UniProt P41594) (assay: Inhibition of glutamate-induced calcium influx in human mGluR5d by FLIPR).
Sequence of Metabotropic glutamate receptor 5 (P41594 whole entry): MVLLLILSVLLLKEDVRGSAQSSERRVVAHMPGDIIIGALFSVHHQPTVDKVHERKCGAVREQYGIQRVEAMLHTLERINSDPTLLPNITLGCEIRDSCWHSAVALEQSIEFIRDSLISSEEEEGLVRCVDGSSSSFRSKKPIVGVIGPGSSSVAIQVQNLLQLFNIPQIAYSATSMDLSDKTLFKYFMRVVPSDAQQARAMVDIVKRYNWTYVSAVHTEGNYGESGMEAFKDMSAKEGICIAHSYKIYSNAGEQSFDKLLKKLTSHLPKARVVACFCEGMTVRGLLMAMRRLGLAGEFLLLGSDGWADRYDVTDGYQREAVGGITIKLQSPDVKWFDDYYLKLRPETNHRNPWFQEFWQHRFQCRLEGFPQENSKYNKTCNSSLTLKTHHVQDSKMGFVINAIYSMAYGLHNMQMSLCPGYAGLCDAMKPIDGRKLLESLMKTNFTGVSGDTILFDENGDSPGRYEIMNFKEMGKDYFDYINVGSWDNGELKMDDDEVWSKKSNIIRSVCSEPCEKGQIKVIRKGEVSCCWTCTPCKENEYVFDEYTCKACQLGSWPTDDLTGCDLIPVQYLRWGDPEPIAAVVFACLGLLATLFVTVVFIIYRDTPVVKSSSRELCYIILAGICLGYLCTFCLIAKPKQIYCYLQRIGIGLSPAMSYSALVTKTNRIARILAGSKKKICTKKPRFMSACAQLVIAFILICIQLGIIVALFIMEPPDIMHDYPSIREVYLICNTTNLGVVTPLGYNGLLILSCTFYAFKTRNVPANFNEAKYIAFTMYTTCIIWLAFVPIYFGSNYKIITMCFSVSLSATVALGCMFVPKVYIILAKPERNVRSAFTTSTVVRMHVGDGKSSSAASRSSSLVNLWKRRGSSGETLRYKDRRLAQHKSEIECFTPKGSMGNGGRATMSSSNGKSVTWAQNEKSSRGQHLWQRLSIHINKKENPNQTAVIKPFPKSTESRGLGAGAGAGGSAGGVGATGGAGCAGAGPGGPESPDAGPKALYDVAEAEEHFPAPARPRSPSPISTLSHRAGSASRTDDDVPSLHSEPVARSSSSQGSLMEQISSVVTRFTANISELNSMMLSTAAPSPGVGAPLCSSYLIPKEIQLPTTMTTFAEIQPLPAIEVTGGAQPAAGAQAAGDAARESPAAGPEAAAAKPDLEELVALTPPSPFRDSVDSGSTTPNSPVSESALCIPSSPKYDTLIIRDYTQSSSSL

Row | SMILES | IC50
1 | Cn1cc(O)nc1NC(=O)Nc1cc(Cl)cc(Cl)c1 [1-(3,5-dichlorophenyl)-3-(1-methyl-4-oxoimidazolidin-2-ylidene)urea] | > 10 µM
2 | Cc1ccc(NC(=O)Nc2nc(O)c3n2CCC3)cc1Cl [1-(3-chloro-4-methylphenyl)-3-(1-oxo-hexahydropyrrolo[1,2-e]imidazol-3-ylidene)urea] | > 10 µM
3 | O=C(Nc1ccc(Cl)cc1)Nc1nc(O)c2n1CCC2 [1-(4-chlorophenyl)-3-(1-oxo-hexahydropyrrolo[1,2-e]imidazol-3-ylidene)urea] | > 10 µM
4 | CCCCCCNC(=O)Nc1nc(O)cn1C [1-hexyl-3-(1-methyl-4-oxoimidazolidin-2-ylidene)urea] | > 10 µM
5 | COC(=O)c1cccc(NC(=O)Nc2nc(O)cn2C)c1 [methyl 3-(3-(1-methyl-4-oxoimidazolidin-2-ylidene)ureido)benzoate] | > 10 µM

Second part, the compound after the results:

Row | IC50 | SMILES
6 | 4.9 µM | Cn1cc(O)nc1NC(=O)Nc1cccs1 [1-(1-methyl-4-oxoimidazolidin-2-ylidene)-3-(thiophen-2-yl)urea]
7 | > 10 µM | Cc1ccccc1NC(=O)Nc1nc(O)c2n1CCC2 [1-(1-oxo-hexahydropyrrolo[1,2-e]imidazol-3-ylidene)-3-o-tolylurea]
8 | > 10 µM | Cc1cccc(NC(=O)Nc2nc(O)c3n2CCC3)c1C [1-(2,3-dimethylphenyl)-3-(1-oxo-hexahydropyrrolo[1,2-e]imidazol-3-ylidene)urea]
9 | > 10 µM | Cc1ccc(C)c(NC(=O)Nc2nc(O)c3n2CCC3)c1 [1-(2,5-dimethylphenyl)-3-(1-oxo-hexahydropyrrolo[1,2-e]imidazol-3-ylidene)urea]
10 | 4.9 µM | Cn1cc(O)nc1NC(=O)Nc1ccccc1 [(E)-1-(1-methyl-4-oxoimidazolidin-2-ylidene)-3-phenylurea]
